Data set [1] is described as follows: Ligand integrity in the crystallization drop (HPLC-ESI-MS). The settings on record: 63 days after the crystallization setup. In kind it is physicochemical. The protocol: for 10 min. Protein crystals were obtained from a sitting drop setup (iQ plates, SPT Labtech, UK) by addition of 100 nL of the reservoir solution (40% (v/v) PEG200 in 100 mM MES, pH 6.5) to 100 nL of protein solution and incubation at 20°C. Crystals were harvested after 7 days by addition of reservoir solution as cryoprotectant to the drop prior to plunging of the crystals in liquid nitrogen. […]
The integrity of apoxidole-1 in the protein solution was assessed 63 days after the crystallization setup by mixing the crystallization drop with 100 µL of DCM and recording of HPLC-ESI-MS spectra using the LTQ Fleet (Thermo Fisher Scientific, US), Ultimate 3000 HPLC (Thermo Fisher Scientific, US) and Xcalibur™ software (Thermo Fish er Scientific, US). […]
(v/v) component 2 in component 1) and 50 µM Test Inhibitor (0.5% (v/v) DMSO) for 90 min at 30°C with slow shaking in the dark prior to initiation of the reaction by addition of 20% (v/v) IDO2 Substrate. Samples were incubated for 120 min at 30°C with slow shaking in the dark. […]

In the next data set the target is IDO1 (Homo sapiens, UniProt P14902). Nature of the data set: Kyn assay in IDO1-HEK293T cells (CMV promoter). The arrangement: host or cells: HEK293T. Conditions: absence of IFN-γ; L-Trp, 24 h; p-DMAB. The data set is classed as cell-based. The protocol:
page 80: temperature and centrifuged for 10 min at 1800 x g. Afterwards, an equal volume of freshly prepared 2% (w/v) p-DMAB in glacial acetic acid (Ehrlich reagent) was added prior to measuring the absorbance at 492 nm and 650 nm on the Spark® Multimode Microplate Reader (Tecan, AT). To determine the Kyn levels, the absorbance of the Kyn-p-DMAB adduct […] was subtracted by the background absorbance A650 and normalized to the DMSO control. Data analysis was performed using a non-linear regression curve fit and GraphPad Prism 9.0 (GraphPad Software, Inc, US) to generate dose-response curves and obtain IC50 values. […] Afterwards, an equal volume of freshly prepared 2% (w/v) p-DMAB in glacial acetic acid (Ehrlich reagent) was added prior to measuring the absorbance at 492 nm and 650 nm on the Spark® Multimode Microplate Reader (Tecan, AT). To determine the Kyn levels, the absorbance of the Kyn-p-DMAB adduct […] was subtracted by the background absorbance A650 and normalized to the DMSO control. […] Afterwards, an equal volume of freshly prepared 2% (w/v) p-DMAB in glacial acetic acid (Ehrlich reagent) was added prior to measuring absorbance at 492 nm and 650 nm on the Spark® Multimode Microplate Reader (Tecan, AT). To determine the Kyn levels, the absorbance of the Kyn-p-DMAB adduct […] was subtracted by the background absorbance A650 and normalized to the DMSO control. […]

Another data set deals with T1, rhIDO1 (holo-IDO1) (Homo sapiens, UniProt P14902).
T1 construct: His; made in house; host or cells: E. coli
The data set can be described thus: nanoDSF thermal denaturation of IDO1. The data set is classed as binding. The protocol:
11 µM rhIDO1 was incubated with compounds at indicated concentrations for 60 min at 37°C in 50 mM potassium phosphate buffer (16.9 mM K2HPO4, 33.1 mM, KH2PO4, pH 6.5). The thermal protein stability from 20°C to 90°C (1°C/min) was measured by means of the intrinsic tryptophan/tyrosine fluorescence using the Prometheus™ NT.48 (NanoTemper® Technologies, DE). Melting scans, first derivatives of melting scans and melting temperatures were analyzed using PR.ThermControl software (NanoTemper® Technologies, DE). Binding affinities were determined by plotting the melting temperature against the ligand concentration and fitting with a single site ligand binding function using GraphPad Prism 9.0 (GraphPad Software, Inc, US). The isothermal analysis of the nanoDSF data was performed with FoldAffinity[1] with an assumed heat capacity change ΔCp of zero. […]
(In general: In DSF a fluorescence change marks the thermal transition of the protein.)

Several values for one entry are separate records, joined by “and”; a condition that tells them apart may be missing. Equal entries are not always repeated. Where two headings read alike, the source gives them in different places.

T1 sequence (P14902 whole entry): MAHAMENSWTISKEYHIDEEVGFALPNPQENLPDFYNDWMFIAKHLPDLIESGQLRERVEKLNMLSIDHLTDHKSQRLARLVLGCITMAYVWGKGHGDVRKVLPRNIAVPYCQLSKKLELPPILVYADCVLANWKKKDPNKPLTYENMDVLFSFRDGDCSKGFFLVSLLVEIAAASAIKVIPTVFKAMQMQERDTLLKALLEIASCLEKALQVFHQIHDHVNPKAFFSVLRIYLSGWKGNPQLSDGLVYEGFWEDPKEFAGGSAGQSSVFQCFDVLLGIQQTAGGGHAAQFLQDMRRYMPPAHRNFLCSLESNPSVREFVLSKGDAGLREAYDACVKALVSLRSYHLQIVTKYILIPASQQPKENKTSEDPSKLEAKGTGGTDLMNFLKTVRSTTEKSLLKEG
Sequence of IDO1 (P14902 whole entry): as above

Turning to `CCOC(=O)C1=CC[C@](C(=O)OC)(c2cc3ccccc3n2C)N(S(=O)(=O)c2ccc(C)cc2)[C@@H]1C(=O)OC(C)(C)C` [Compound 3d], in data set [1], the “ligand integrity after crystallization setup” value is recorded as “still intact”. The “Kyn production in HEK293T cells transiently expressing IDO1” value at IDO1 is reported as “inhibited Kyn production”. Besides, the Kd at rhIDO1 (holo-IDO1) (48 °C, FoldAffinity, first replicate, read-out: KD, 48°C (isothermal analysis, single replicate)) is 11.6 nM; at rhIDO1 (holo-IDO1) (49 °C, FoldAffinity, read-out: KD, 49°C (isothermal analysis, single replicates)) it was 24.7 nM and 26 nM; at rhIDO1 (holo-IDO1) (50 °C, FoldAffinity, read-out: KD, 50°C (isothermal analysis, single replicates)), 48.4 nM and 34.7 nM and 24.8 nM; on rhIDO1 (holo-IDO1) (51 °C, FoldAffinity, read-out: KD, 51°C (isothermal analysis, single replicates)), 54.4 nM and 41.3 nM and 33.6 nM; at rhIDO1 (holo-IDO1) (at 49 °C, read-out: KD (isothermal analysis of nanoDSF data)), 20.7 ± 0.01 nM; on rhIDO1 (holo-IDO1) (from Tm vs concentration, mean±SD, n=3, read-out: apparent dissociation constant KD,app) it was 1100 nM and 1090 nM. Also, the “shift of melting temperature Tm (nanoDSF)” value on rhIDO1 (holo-IDO1) (holo-IDO1, 60 min at 37 °C) stood at 7.7±0.3 °C. Further, the “melting temperature Tm of IDO1 with compound” value on rhIDO1 (holo-IDO1) (holo-IDO1 treated with compound, DMSO 45.7±0.2 °C) was found to be 53.5±0.2 °C.

The values above are taken from PMC9804781, “Identification of a Novel Pseudo‐Natural Product Type IV IDO1 Inhibitor Chemotype” (Angewandte Chemie (International Ed. in English), 2022).
